We go through eight compounds from US9957265B2, “N-(2-cyano heterocyclyl) pyrazolo pyridones as janus kinase inhibitors” (Merck Sharp & Dohme Corp., priority 2013, dated 2018).

Read-outs that look alike come from different tables or passages of the source.

The target of one assay is JAK1 (Homo sapiens (Human), UniProt P23458). Kind of assay: Jak Biochemical HTRF Assay (JAK1). To be noted: recombinant GST-tagged catalytic domain, [ATP] 31.8 μM, unit not given (compound concentrations tested given in nM). The source says:
Jak Biochemical HTRF Assay Protocol
Subsequent reagent additions employed an Agilent Bravo.
In general terms: TR-FRET usually uses a lanthanide donor and a delayed reading to cut background.

Another assay deals with JAK2 (Homo sapiens (Human), UniProt O60674). Kind of assay: Jak Biochemical HTRF Assay (JAK2).
JAK2, sequence (O60674 849-1124): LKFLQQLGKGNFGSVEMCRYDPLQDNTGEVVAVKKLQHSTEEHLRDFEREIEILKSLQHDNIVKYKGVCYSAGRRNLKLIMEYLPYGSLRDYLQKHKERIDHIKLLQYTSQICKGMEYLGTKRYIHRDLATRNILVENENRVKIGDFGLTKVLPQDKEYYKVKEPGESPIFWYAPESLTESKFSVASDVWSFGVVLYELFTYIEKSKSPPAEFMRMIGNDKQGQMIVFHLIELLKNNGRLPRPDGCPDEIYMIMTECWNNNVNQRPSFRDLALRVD
The mark [1] stands for this setting: JAK2 IC50, recombinant GST-tagged catalytic domain, [ATP] 8.5 μM, unit not given (compound concentrations tested given in nM).
The mark [2] stands for this setting: read-out: JAK2 IC50, recombinant GST-tagged catalytic domain, [ATP] 8.5 μM, unit not given (compound concentrations tested given in nM).

JAK1, sequence (P23458 875-1153): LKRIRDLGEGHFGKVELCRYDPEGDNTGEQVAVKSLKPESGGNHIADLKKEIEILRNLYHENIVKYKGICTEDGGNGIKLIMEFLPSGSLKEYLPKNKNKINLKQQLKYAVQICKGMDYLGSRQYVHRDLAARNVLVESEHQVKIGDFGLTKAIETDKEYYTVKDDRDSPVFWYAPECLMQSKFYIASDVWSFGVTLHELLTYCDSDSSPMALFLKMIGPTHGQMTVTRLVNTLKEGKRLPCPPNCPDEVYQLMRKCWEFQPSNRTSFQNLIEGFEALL

As to `N#C[C@H]1CCOC[C@@H]1n1nc(Nc2ccc(C(NC3CCC3)C(F)(F)F)cc2)c2c(=O)[nH]ccc21` (single isomer, unassigned) [Example 1-92, (3R,4S)-3-[3-({4-[(1S or 1R)-1-(cyclobutylamino)-2,2,2-trifluoroethyl]phenyl}amino)-4-oxo-4,5-dihydro-1H-pyrazolo[4,3-c]pyridin-1-yl]tetrahydro-2H-pyran-4-carbonitrile], the IC50 on JAK1 is 0.13 nM; on JAK2 (setting [1]), 0.19 nM.

With `N#C[C@H]1CCOC[C@@H]1n1nc(Nc2ccc(C3(C(F)(F)F)CCCCN3)cc2)c2c(=O)[nH]ccc21` (single isomer, unassigned) [Example 2-8, (3R,4S)-3-[4-oxo-3-({4-[(2R or 2S)-2-(trifluoromethyl)piperidin-2-yl]phenyl}amino)-4,5-dihydro-1H-pyrazolo[4,3-c]pyridin-1-yl] tetrahydro-2H-pyran-4-carbonitrile], the IC50 at JAK1 and on JAK2 (setting [1]) was 0.05 nM each time.

`CC1c2cc(Nc3nn([C@H]4COCC[C@@H]4C#N)c4cc[nH]c(=O)c34)ccc2S(=O)(=O)N1C` (single isomer, unassigned) [Example 1-34, (3R,4S)-3-(3-(((R or S)-2,3-dimethyl-1,1-dioxido-2,3-dihydrobenzo[d]isothiazol-5-yl)amino)-4-oxo-4,5-dihydro-1H-pyrazolo[4,3-c]pyridin-1-yl)tetrahydro-2H-pyran-4-carbonitrile]: the values for the IC50 on JAK1 and on JAK2 (setting [1]) were 0.03 nM and 1.18 nM, respectively.

`CC1(C)CCCN1S(=O)(=O)c1ccc(Nc2nn([C@H]3COCC[C@@H]3C#N)c3cc[nH]c(=O)c23)cc1` [Example 1-72, (3R,4S)-3-[3-({4-[(2,2-dimethylpyrrolidin-1-yl)sulfonyl]phenyl}amino)-4-oxo-4,5-dihydro-1H-pyrazolo[4,3-c]pyridin-1-yl]tetrahydro-2H-pyran-4-carbonitrile]: the figures for the IC50 at JAK1 and at JAK2 (setting [2]) were 0.1 nM and 0.2 nM, respectively.

Turning to `Cc1ccc(Nc2nn([C@H]3COCC[C@@H]3C#N)c3cc[nH]c(=O)c23)cc1C` [Example 1-68, (3R,4S)-3-{3-[(3,4-dimethylphenyl)amino]-4-oxo-4,5-dihydro-1H-pyrazolo[4,3-c]pyridin-1-yl}tetrahydro-2H-pyran-4-carbonitrile], the IC50 is 0.28 nM on JAK1 and 1.83 nM at JAK2 (setting [2]).

Turning to `CC(C)(C)OC(=O)CN1Cc2cc(Nc3nn([C@H]4COCC[C@@H]4C#N)c4cc[nH]c(=O)c34)ccc2S1(=O)=O` [Example 1-64, tert-butyl [5-({1-[(3R,4S)-4-cyanotetrahydro-2H-pyran-3-yl]-4-oxo-4,5-dihydro-1H-pyrazolo[4,3-c]pyridin-3-yl}amino)-1,1-dioxido-1,2-benzisothiazol-2(3H)-yl]acetate], the IC50 on JAK1 turned out to be 0.04 nM; on JAK2 (setting [2]), 0.3 nM.

As to `CN(C)S(=O)(=O)c1ccc(Nc2nn([C@H]3COCC[C@@H]3C#N)c3cc[nH]c(=O)c23)cc1` [Example 1-6, 4-((1-((3R,4S)-4-cyanotetrahydro-2H-pyran-3-yl)-4-oxo-4,5-dihydro-1H-pyrazolo[4,3-c]pyridin-3-yl)amino)-N,N-dimethyl-benzenesulfonamide], the IC50 on JAK1 was 0.07 nM; at JAK2 (setting [2]) it was 0.21 nM.

With `CC1CCCN1C(c1ccc(Nc2nn([C@H]3COCC[C@@H]3C#N)c3cc[nH]c(=O)c23)cc1)C(F)(F)F` (single isomer, unassigned) [Example 1-87, (3R,4S)-3-{4-oxo-3-[(4-{(1S or 1R)-2,2,2-trifluoro-1-[(2R or 2S)-2-methylpyrrolidin-1-yl]ethyl}phenyl)amino]-4,5-dihydro-1H-pyrazolo[4,3-c]pyridin-1-yl}tetrahydro-2H-pyran-4-carbonitrile], the figures for the IC50 on JAK1 and on JAK2 (setting [1]) were 0.15 nM and 0.3 nM, respectively.
